The source of these data is US7932050B2, “Enzymatic substrates derived from phenoxazinone and their use as developers in detection of microorganisms with peptidase activity” (bioMerieux, priority 2004, dated 2011).

Common to all, as to format: cell-based
One test concerns Pseudomonas maltophilia. Put plainly: Detection of β-alanine peptidase activity (example 9), colony coloration. Conditions: between 24 and 48 h of incubation.
Test [1] deals with Pseudomonas aeruginosa. Described as above. Conditions: between 24 and 48 h of incubation, no accession No.
In another test the test system is Ralstonia basilensis. Conditions: between 24 and 48 h of incubation.
Test [2] has as its system Pseudomonas fragilis NCIMB 8987. The experiment in a line: Detection of β-alanine peptidase activity (example 9), colony coloration. The following applies: between 24 and 48 h of incubation; strain NCIMB 8987.
Test [3] has as its system Burkholderia cepacia GIII LMG 18832. The description is as above. The following applies: between 24 and 48 h of incubation; strain LMG 18832.
Another test relates to Ralstonia taiwanensis. Conditions: between 24 and 48 h of incubation.
In test [4] the test system is Acinetobacter baumannii ATCC 19606. Put plainly: Detection of β-alanine peptidase activity (example 9), colony coloration. The following applies: between 24 and 48 h of incubation; strain ATCC 19606.
The subject of test [5] is Burkholderia cepacia GI LMG1222. The test is described as above. Conditions: between 24 and 48 h of incubation; strain LMG1222.
For test [6], the system named is Acinetobacter calcoaceticus. The description is as above. The following applies: between 24 and 48 h of incubation.
Another test has as its system Escherichia coli. The experiment in a line: Detection of β-alanine peptidase activity (example 11), colony coloration. The following applies: between 24 and 48 h of incubation; Applicant's collection.
The subject of test [7] is Pseudomonas aeruginosa. Described as above. The following applies: between 24 and 48 h of incubation.
The subject of the next test is Pseudomonas fluorescens. The test is described as above. Conditions: between 24 and 48 h of incubation; Applicant's collection.
Test [8] deals with Burkholderia Gladioli LGM 6880. Described as above. The following applies: between 24 and 48 h of incubation; strain LGM 6880.
The next test relates to Pseudomonas putida. The test is described as above. Conditions: between 24 and 48 h of incubation; Applicant's collection.
Test [9] deals with Burkholderia cepacia LMG 18941. Described as above. Conditions: between 24 and 48 h of incubation; strain LMG 18941.
In test [10] the test system is Pseudomonas aeruginosa NCTC 10662. The experiment in a line: Detection of L-alanine peptidase activity on Columbia agar containing the substrate. On the set-up: key to C [head as printed; cells hold growth signs]: the sign ++ signifies very good growth; the sign + signifies good growth of the strain; the sign +/− signifies average growth of the strain; the sign − signifies absence of growth of the strain. The following applies: substrate 50 mg/l in Columbia agar; 24 to 48 h at 37° C.

For test [11], the system named is Klebsiella pneumoniae NCTC 10896. The test is described as above. On the set-up: key to C [head as printed; cells hold growth signs]: the sign ++ signifies very good growth; the sign + signifies good growth of the strain; the sign +/− signifies average growth of the strain; the sign − signifies absence of growth of the strain. The following applies: substrate 50 mg/l in Columbia agar; 24 to 48 h at 37° C.

Test [12] deals with Streptococcus pyogenes NCTC 8306. The test is described as above. On the set-up: key to G [head as printed; cells hold colony color]: I signifies colorless; key to C [head as printed; cells hold growth signs]: the sign ++ signifies very good growth; the sign + signifies good growth of the strain; the sign +/− signifies average growth of the strain; the sign − signifies absence of growth of the strain. Conditions: substrate 50 mg/l in Columbia agar; 24 to 48 h at 37° C.

The test system of test [13] is Escherichia coli NCTC 10418. The test is described as above. On the set-up: key to C [head as printed; cells hold growth signs]: the sign ++ signifies very good growth; the sign + signifies good growth of the strain; the sign +/− signifies average growth of the strain; the sign − signifies absence of growth of the strain. The following applies: substrate 50 mg/l in Columbia agar; 24 to 48 h at 37° C.

Test [14] has as its system Providencia rettgeri NCTC 7475. The description is as above. On the set-up: key to C [head as printed; cells hold growth signs]: the sign ++ signifies very good growth; the sign + signifies good growth of the strain; the sign +/− signifies average growth of the strain; the sign − signifies absence of growth of the strain. Conditions: substrate 50 mg/l in Columbia agar; 24 to 48 h at 37° C.

Another test has as its system Salmonella hadar. Described as above. On the set-up: key to C [head as printed; cells hold growth signs]: the sign ++ signifies very good growth; the sign + signifies good growth of the strain; the sign +/− signifies average growth of the strain; the sign − signifies absence of growth of the strain. Conditions: substrate 50 mg/l in Columbia agar; 24 to 48 h at 37° C.
The subject of test [15] is Listeria monocytogenes NCTC 11994. Described as above. The following applies: substrate 50 mg/l in Columbia agar; 24 to 48 h at 37° C. On the set-up: key to G [head as printed; cells hold colony color]: I signifies colorless; key to C [head as printed; cells hold growth signs]: the sign ++ signifies very good growth; the sign + signifies good growth of the strain; the sign +/− signifies average growth of the strain; the sign − signifies absence of growth of the strain.

The subject of test [16] is Proteus mirabilis NCTC 10975. Described as above. Conditions: substrate 50 mg/l in Columbia agar; 24 to 48 h at 37° C. On the set-up: key to C [head as printed; cells hold growth signs]: the sign ++ signifies very good growth; the sign + signifies good growth of the strain; the sign +/− signifies average growth of the strain; the sign − signifies absence of growth of the strain.

Test [17] concerns Staphylococcus aureus NCTC 6571. The description is as above. Conditions: substrate 50 mg/l in Columbia agar; 24 to 48 h at 37° C. On the set-up: key to G [head as printed; cells hold colony color]: I signifies colorless; key to C [head as printed; cells hold growth signs]: the sign ++ signifies very good growth; the sign + signifies good growth of the strain; the sign +/− signifies average growth of the strain; the sign − signifies absence of growth of the strain.

Setting [18] is: first P. aeruginosa strain of table 2 (r6).
Where [19] appears, read: fourth P. aeruginosa strain of table 2 (r12).
Where [20] appears, read: second P. aeruginosa strain of table 2 (r8).
The mark [21] stands for this setting: third P. aeruginosa strain of table 2 (r10).
Setting [22] is: strain of Applicant's collection (r9).
Setting [23] is: strain of Applicant's collection (r13).

Turning to `CCCCCc1cc(=O)cc2oc3cc(NC(=O)CCNC(=O)OC(C)(C)C)ccc3nc1-2` [Nonchlorinated beta-alanyl compound, 7-N—(N′-t-butoxycarbonyl-β-alanyl)amino-1-pentylphenoxazin-3-one], the coloration result was “colorless” in the test with Pseudomonas maltophilia; “purple” in the test with Pseudomonas aeruginosa [1] (setting [18]); “purple” in the test on Pseudomonas aeruginosa [1] (setting [19]); “purple” with Pseudomonas aeruginosa [1] (setting [20]); “purple” with Pseudomonas aeruginosa [1] (setting [21]); “colorless” with Ralstonia basilensis. Also, the coloration result is reported as “colorless” in [2]; “yellow” in [3]; “colorless” in the test on Ralstonia taiwanensis; “colorless” in test [4]; “yellow” in test [5]; “colorless” in test [6].

For the molecule `COC(=O)c1c2oc3cc(NC(=O)CCNC(=O)OC(C)(C)C)ccc3nc-2c(C)c(Cl)c1=O` [b-ala-MCMP, methyl 7-N—(N′-t-butoxycarbonyl-β-alanyl)amino-1-methyl-2-chlorophenoxazin-3-one-4-carboxylate], the coloration result was “colorless” in the test with Escherichia coli; “pink-” in the test on Pseudomonas aeruginosa [7] (strain ATCC 9027); “violet” with Pseudomonas aeruginosa [7] (strain ATCC 10145); “violet” in the test on Pseudomonas aeruginosa [7] (strain ATCC 27853); “violet” with Pseudomonas aeruginosa [7] (setting [22]); “colorless” in the test with Pseudomonas aeruginosa [7] (setting [23]). The coloration result (in the test on Pseudomonas fluorescens; in test [8]; in the test with Pseudomonas putida; in test [9]) was “colorless” in each case.

For the molecule `Cc1c2nc3ccc(NC(=O)CCN)cc3oc-2c(C)c(=O)c1C.O=C(O)C(F)(F)F` [b-ala-TMP, 7-N-(β-Alanyl)amino-1,2,4-trimethylphenoxazin-3-one trifluoroacetate salt], the coloration result is “orange” in the test on Escherichia coli; “pink” with Pseudomonas aeruginosa [7] (strain ATCC 9027); “orangy-” in the test on Pseudomonas aeruginosa [7] (strain ATCC 10145); “pink” in the test with Pseudomonas aeruginosa [7] (strain ATCC 27853); “orangy-” in the test with Pseudomonas aeruginosa [7] (setting [22]); “colorless” with Pseudomonas aeruginosa [7] (setting [23]). Further, the coloration result in the test on Pseudomonas fluorescens was “colorless”; in [8] it was “colorless”; in the test on Pseudomonas putida, “colorless”; in test [9], “pale pink”.

In the case of `CCCCCc1c2nc3ccc(NC(=O)CCNC(=O)OC(C)(C)C)cc3oc-2cc(=O)c1Cl` [Chlorinated beta-alanyl compound, 7-N—(N′-t-butoxycarbonyl-β-alanyl)amino-2-chloro-1-pentylphenoxazin-3-one], the coloration result in the test with Pseudomonas maltophilia is listed as “colorless”; in the test on Pseudomonas aeruginosa [1] (setting [18]), “purple”; in the test on Pseudomonas aeruginosa [1] (setting [19]) it was “purple”; in the test with Pseudomonas aeruginosa [1] (setting [20]), “pale purple”; in the test on Pseudomonas aeruginosa [1] (setting [21]), “pale purple”; in the test with Ralstonia basilensis, “colorless”. Also, the coloration entry is reported as “colorless” in test [2]; “yellow” in test [3]; “colorless” in the test with Ralstonia taiwanensis; “colorless” in test [4]; “yellow” in test [5]; “colorless” in [6].

Consider `Cc1c2nc3ccc(NC(=O)CCN)cc3oc-2cc(=O)c1C.O=C(O)C(F)(F)F` [b-ala-DMP, 7-N-(β-Alanyl)amino-1,2-dimethylphenoxazin-3-one trifluoroacetate salt], for which the coloration result with Escherichia coli is given as “orange”; in the test with Pseudomonas aeruginosa [7] (strain ATCC 9027), “deep pink”; with Pseudomonas aeruginosa [7] (strain ATCC 10145), “deep pink”; in the test with Pseudomonas aeruginosa [7] (strain ATCC 27853), “pink”; with Pseudomonas aeruginosa [7] (setting [22]), “deep pink”; in the test on Pseudomonas aeruginosa [7] (setting [23]), “colorless”. The coloration result in the test with Pseudomonas fluorescens is given as “colorless”; in test [8], “colorless”; in the test on Pseudomonas putida, “colorless”; in [9], “pale pink”.

For `CCCCCc1cc(=O)cc2oc3cc(NC(=O)[C@H](C)NC(=O)OC(C)(C)C)ccc3nc1-2` [Nonchlorinated L-alanyl compound, 7-N—(N″-t-butoxycarbonyl-L-alanyl)amino-1-pentylphenoxazin-3-one], the “C [head as printed; cells hold growth signs]” value was “+” in test [10]; “+” in test [11]; “−” in [12]; “+” in [13]; “+” in [14]; “+” with Salmonella hadar. For the same molecule, the “C [head as printed; cells hold growth signs]” value was “−” in test [15], “+” in test [16] and “−” in [17]. Besides, the “G [head as printed; cells hold colony color]” value in test [10] was “purple”; in test [11], “purple”; in [12] it was “I”; in test [13], “purple”; in [14], “purple”; with Salmonella hadar, “purple”. Besides, the “G [head as printed; cells hold colony color]” value is listed as “I” in [15], “purple” in test [16] and “I” in test [17].

Regarding `CCCCCc1c2nc3ccc(NC(=O)[C@H](C)NC(=O)OC(C)(C)C)cc3oc-2cc(=O)c1Cl` [Chlorinated L-alanyl compound, 7-N—(N′-t-butoxycarbonyl-L-alanyl)amino-2-chloro-1-pentylphenoxazin-3-one], the “C [head as printed; cells hold growth signs]” value was “+” in [10]; “+” in test [11]; “+/−” in [12]; “+” in test [13]; “+” in test [14]; “+” in the test on Salmonella hadar. Besides, the “C [head as printed; cells hold growth signs]” value in test [15], in test [16] and in test [17] was “+” throughout. For the same molecule, the “G [head as printed; cells hold colony color]” value is “pink/purple” in test [10]; “pink/purple” in test [11]; “I” in test [12]; “pink/purple” in test [13]; “pink/purple” in test [14]; “pinl/purple” with Salmonella hadar. In addition, the “G [head as printed; cells hold colony color]” value is “I” in test [15], “pink/purple” in [16] and “I” in test [17].
